Measurements from publication PMC10466336, “Chemical Probe for Imaging of Polo-like Kinase 4 and Centrioles” (JACS Au, 2023).

Target: T1, GFP-Plk4(K41M) in transfected HeLa cells (Homo sapiens, UniProt O00444, K41M)
T1 construct: expressed in transfected cells; host or cells: HeLa
T1 sequence (O00444 1-970 K41M): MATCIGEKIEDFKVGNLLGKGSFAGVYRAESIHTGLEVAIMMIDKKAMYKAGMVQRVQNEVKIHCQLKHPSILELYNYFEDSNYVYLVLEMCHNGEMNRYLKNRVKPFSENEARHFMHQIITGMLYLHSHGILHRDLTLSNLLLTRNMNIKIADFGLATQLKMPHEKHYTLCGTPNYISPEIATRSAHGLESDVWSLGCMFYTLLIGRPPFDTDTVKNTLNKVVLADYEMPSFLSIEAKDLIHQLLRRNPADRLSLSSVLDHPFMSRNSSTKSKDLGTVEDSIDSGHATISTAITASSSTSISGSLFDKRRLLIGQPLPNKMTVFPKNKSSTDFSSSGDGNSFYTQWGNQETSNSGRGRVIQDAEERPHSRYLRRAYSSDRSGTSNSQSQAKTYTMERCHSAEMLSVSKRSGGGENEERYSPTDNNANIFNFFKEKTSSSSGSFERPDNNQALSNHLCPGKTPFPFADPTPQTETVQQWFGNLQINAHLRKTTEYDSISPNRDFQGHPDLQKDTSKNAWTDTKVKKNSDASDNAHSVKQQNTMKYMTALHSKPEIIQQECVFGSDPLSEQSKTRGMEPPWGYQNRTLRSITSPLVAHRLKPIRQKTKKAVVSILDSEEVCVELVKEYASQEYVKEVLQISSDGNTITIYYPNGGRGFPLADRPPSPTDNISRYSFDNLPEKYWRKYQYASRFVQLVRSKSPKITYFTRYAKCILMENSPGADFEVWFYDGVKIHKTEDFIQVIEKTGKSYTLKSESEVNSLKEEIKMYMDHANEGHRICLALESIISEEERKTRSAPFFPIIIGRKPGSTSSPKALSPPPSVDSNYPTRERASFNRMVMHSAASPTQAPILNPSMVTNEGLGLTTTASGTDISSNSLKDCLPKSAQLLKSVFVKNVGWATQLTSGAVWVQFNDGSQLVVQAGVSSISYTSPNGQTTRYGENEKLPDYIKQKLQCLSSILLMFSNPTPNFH
Assay: Live-cell confocal/STED imaging of overexpressed Plk4
Type: cell-based
Conditions: Cen-TCO 500 nM 1 h, tetrazine 500 nM, no wash (Figure S6)

**Q.** Which “unspecific signal among tetrazines after Cen-TCO labeling” value does the source give for `Cc1nnc(COc2cccc3c2C2(OC3=O)c3ccc(N(C)C)cc3[Si](C)(C)c3cc(N(C)C)ccc32)nn1` [HD653, reference compound] here?
**A.** lowest unspecific signal
